In brackets after ≈: the same amount, converted by molar mass. Activity calls are given as the source filed them. The calls are words filed in the database; no cut-off is given here.
Key:
Pseudomonas aeruginosa [1] = experiment: Antibacterial activity against Pseudomonas aeruginosa MTCC 6642 at 0.4 mg/50 uL incubated overnight by agar-well diffusion analysis; type: functional
Staphylococcus aureus [2] = experiment: Antibacterial activity against Staphylococcus aureus at 0.4 mg/50 uL incubated overnight by agar-well diffusion analysis; type: functional
Escherichia coli [3] = experiment: Antibacterial activity against Escherichia coli MTCC 1563 at 0.4 mg/50 uL incubated overnight by agar-well diffusion analysis; type: functional
Klebsiella pneumoniae [4] = experiment: Antibacterial activity against Klebsiella pneumoniae at 0.4 mg/50 uL incubated overnight by agar-well diffusion analysis; type: functional
HEK293 = experiment: Cytotoxicity against HEK293 cells after 48 hrs by SRB assay; type: cell-based; details: human, hek293, 48 h
[5] = Cytotoxicity against human HCT15 cells assessed as cell growth at 80 ug/ml after 48 hrs by SRB assay; type: functional; details: HCT-15, 48 h, read-out: Activity
[6] = Cytotoxicity against human HCT15 cells after 48 hrs by SRB assay; type: functional; details: HCT-15, 48 h; for CC50: read-out: LC50 (the source's name)
NCI-H226 [7] = experiment: Cytotoxicity against human NCI-H226 cells assessed as cell growth at 80 ug/ml after 48 hrs by SRB assay; type: functional; details: NCI-H226, 48 h, read-out: Activity
NCI-H226 [8] = experiment: Cytotoxicity against human NCI-H226 cells after 48 hrs by SRB assay; type: functional; details: NCI-H226, 48 h
Escherichia coli [9] = experiment: Antibacterial activity against Escherichia coli MTCC 1563 at 0.04 mg/50 uL incubated overnight by agar-well diffusion analysis; type: functional
Pseudomonas aeruginosa [10] = experiment: Antibacterial activity against Pseudomonas aeruginosa MTCC 6642 at 0.04 mg/50 uL incubated overnight by agar-well diffusion analysis; type: functional
Staphylococcus aureus [11] = experiment: Antibacterial activity against Staphylococcus aureus at 0.04 mg/50 uL incubated overnight by agar-well diffusion analysis; type: functional
Klebsiella pneumoniae [12] = experiment: Antibacterial activity against Klebsiella pneumoniae at 0.04 mg/50 uL incubated overnight by agar-well diffusion analysis; type: functional

SMILES | diameter of the inhibition zone (DIZ) (Pseudomonas aeruginosa [1]) [mm] | diameter of the inhibition zone (DIZ) (Staphylococcus aureus [2]) [mm] | diameter of the inhibition zone (DIZ) (Escherichia coli [3]) | diameter of the inhibition zone (DIZ) (Klebsiella pneumoniae [4]) | further results
O=c1ccc2ccc(OCc3cn(CC4=C(Cl)c5cc(Cl)ccc5OCC4)nn3)cc2o1 | 11 | 10 | inactive | 12 mm | 
Cc1ccc2c(c1)C(Cl)=C(Cn1cc(COc3ccc4c(C)cc(=O)oc4c3)nn1)CCO2 | 16 |  | inactive | 12 mm | 
Cc1ccc2c(c1)C(Cl)=C(Cn1cc(-c3ccccc3)nn1)CCO2 | 16 |  |  | 9 mm | 
Cc1ccc2c(c1)C(Cl)=C(Cn1cc(COc3ccc4ccc(=O)oc4c3)nn1)CCO2 | 18 | 10 | 16 mm |  | Activity (HEK293): Non-toxic; growth at 80 µg/mL [5]: 33%; GI50 [6]: 52.5 µg/mL (≈ 117 µM); TGI [6]: > 80 µg/mL; CC50 [6]: > 80 µg/mL; growth at 80 µg/mL (NCI-H226 [7]): 8%; GI50 (NCI-H226 [8]): 41.3 µg/mL (≈ 91.8 µM); LC50 (NCI-H226 [8]): > 80 µg/mL; TGI (NCI-H226 [8]): > 80 µg/mL
Cc1ccc(-c2cn(CC3=C(Cl)c4cc(C)ccc4OCC3)nn2)cc1 | 10 | 8 | 10 mm |  | 
Cc1cccc2c1OCCC(Cn1cc(COc3cccc4cccnc34)nn1)=C2Cl | 18 | 10 |  |  | 
Cc1ccc(-c2cn(CC3=C(Cl)c4ccccc4OCC3)nn2)cc1 | 12 | 10 | 9 mm |  | Activity (HEK293): Non-toxic; growth at 80 µg/mL [5]: 55%
Cc1cccc2c1OCCC(Cn1cc(COc3ccc4ccc(=O)oc4c3)nn1)=C2Cl | 14 | 12 |  | inactive | Activity (HEK293): Non-toxic; growth at 80 µg/mL [5]: 86%
Cc1cccc2c1OCCC(Cn1cc(-c3ccccc3)nn1)=C2Cl | 11 |  | 25 mm | 9 mm | 
ClC1=C(Cn2cc(-c3ccccc3)nn2)CCOc2ccccc21 | 13 | 7 | inactive | 18 mm | Activity (HEK293): Non-toxic; growth at 80 µg/mL [5]: 61%; growth at 80 µg/mL (NCI-H226 [7]): 73%
ClC1=C(Cn2cc(COc3cccc4cccnc34)nn2)CCOc2ccccc21 |  | 8 | 11 mm | inactive | 
COc1cccc2c1C(=O)c1c(O)c3c(c(O)c1C2=O)C[C@@](O)(C(=O)CO)C[C@@H]3O[C@H]1C[C@H](N)[C@H](O)[C@H](C)O1 [DOXORUBICIN] |  |  |  |  | GI50 [6]: < 10 µg/mL; TGI [6]: 36.1 µg/mL (≈ 66.4 µM); CC50 [6]: > 80 µg/mL; GI50 (NCI-H226 [8]): < 10 µg/mL; TGI (NCI-H226 [8]): < 10 µg/mL
Cc1ccc(-c2cn(CC3=C(Cl)c4cc(Cl)ccc4OCC3)nn2)cc1 | 12 |  | 13 mm | 10 mm | 
Cc1ccc(-c2cn(CC3=C(Cl)c4cccc(C)c4OCC3)nn2)cc1 | 15 | 7 | 20 mm | 17 mm | Activity (HEK293): Non-toxic; growth at 80 µg/mL [5]: 58%
Cc1cccc2c1OCCC(Cn1cc(COc3ccc4c(C)cc(=O)oc4c3)nn1)=C2Cl | 11 | 11 |  |  | 
Cc1cc(=O)oc2cc(OCc3cn(CC4=C(Cl)c5ccccc5OCC4)nn3)ccc12 | 12 | 11 | 11 mm | 7 mm | 
CCn1cc(C(=O)O)c(=O)c2cc(F)c(N3CCN(C)CC3)cc21 [PEFLOXACIN] |  |  |  |  | diameter of the inhibition zone (DIZ) (Escherichia coli [9]): 31 mm; diameter of the inhibition zone (DIZ) (Pseudomonas aeruginosa [10]): 28 mm; diameter of the inhibition zone (DIZ) (Staphylococcus aureus [11]): 36 mm; diameter of the inhibition zone (DIZ) (Klebsiella pneumoniae [12]): 35 mm
Cc1cc(=O)oc2cc(OCc3cn(CC4=C(Cl)c5cc(Cl)ccc5OCC4)nn3)ccc12 | 18 | 12 | 14 mm |  | 
ClC1=C(Cn2cc(COc3cccc4cccnc34)nn2)CCOc2ccc(Cl)cc21 | 10 | 12 | 10 mm | 12 mm | 
O=c1ccc2ccc(OCc3cn(CC4=C(Cl)c5ccccc5OCC4)nn3)cc2o1 | 12 | 10 | inactive | 11 mm | 
